# In patent publication US20260263334A1, “COMPOSITIONS CONTAINING NITRATE-RICH FOODS AND EXTRACTS FOR SHIFTING THE ORAL MICROBIOME” (WM. WRIGLEY JR. COMPANY, priority 2023, published 2026):
# What was measured:
# oral microbiota = details: mouthwash containing 0.12% of chlorhexidine, cited from earlier work
# [1] = test system: Veillonella atypica (ATCC 17744) (V.a.); assay: nitrate reductase (NR) activity of V.a (Griess test); format: cell-based; details: for NR activity of CHX treated V.a (OD): Reduced Transport buffer
# Experimental: (§1) For evaluation of nitric oxide producing capability of oral bacteria, overnight cultures of test organisms were washed once and transferred into a medium without any nitrate or nitrite compounds. A 0.5% (or 1%) KNO3 was added to the medium, and further incubated anaerobically at 37° C. for 24-48 hours. The concentration of nitrite (due to reduction of nitrate by nitrate reductase) was determined by Griess Test over a desired period of time.
# (§2) To examine the effect of natural and chemical antimicrobial agents on NO production, test bacteria were pre-exposed to magnolia bark extract (MBE) (a natural germ-kill compound), peppermint oil, and chlorhexidine (CHX). The activities of nitrate reductase from oral bacteria were assayed by Griess test as described above. No treatment controls were included for each test bacterial species. The production of nitrite was reduced if the test antimicrobial compounds affected the nitrate reductase activity. Dose response curves were prepared.
# V. atypica was grown in RCM medium without (NH4)2SO4 (to avoid the NH4 affecting Griess reagent); and without agar (0.05%, to avoid affecting the OD measurement).
# The method used was the same as that for A.a., except the V.a cell concentration was adjusted to OD550 nm=0.7 (10^8 CFR/ml) in Reduced Transport buffer. The NR activity was also determined in the same buffer system. […]
# (§3) Test bacteria cells were incubated with 1% cysteine in growth medium and 0.3% of a nitrate source. Controls contained no cysteine.
# [2] = test system: Aggregatibacter actinomycetemcomitans (A.a.); assay: nitrate reductase (NR) activity of A.a. (Griess test); format: cell-based
# Experimental: as §1, §2
# A. actinomycetemcomitans (A.a.) was grown anaerobically in THB broth supplemented with 1% yeast extract with 0.001% Hemin, and 0.0001% Vitamin K.
# The nitrate source KNO3 (0.1% final) was added to respective growth media for individual test bacteria and incubated for 24-48 hours, then 20 μl of the culture broth was withdrawn and tested for nitrite with Griess reagent.
# Test bacteria were grown in respective media anaerobically for 48 hours. Cells were centrifuged and re-suspended in buffer or fresh medium for NR activity testing. […]
# as §3
# [3] = test system: Aggregatibacter actinomycetemcomitans (A.a.); assay: short-term time-kill against A.a. (viable colony on agar); format: cell-based; set-up: key to viable colony: +: viable colony; −: no viable colony; details: for viable colony: stop reagent
# Experimental: Fresh grown cells were harvested and adjusted to OD550 nm=0.5, then mixed with CHX (75-1,000 μg/ml). At different time points, an aliquot of cells was removed and mixed with (or without) stop reagent (0.5% Tween 80 and 0.07% Lecithin) to stop the CHX reaction on cells. The treated cells were centrifuged to remove the supernatant that contained CHX, and the cell pellet was spotted on BHI agar (supplemented with 0.001% Hemin, 0.0001% Vitamin K) for cell viability. Fresh grown cells were harvested and mixed with MBE for a short period of time and the viability of treated cells were evaluated. 10% DMSO was used to wash the treated cells and the MBE was removed from the assay system. Immediately after treatment, 10% DMSO was added to the cell mixture. The cell mixture was then centrifuged and washed once more with 10% DMSO. Cells treated with MBE for various times were spotted on an agar plate, […] and noted for viable colony development.
# [4] = chlorhexidine >=10 μg/ml, summary
compound,measurement,setting,value
"[H]/N=C(\N/C(=N/[H])NCCCCCCNC(=N)NC(=N)Nc1ccc(Cl)cc1)Nc1ccc(Cl)cc1 [CHX, chlorhexidine]",VSC-producing bacteria and enteric nitric oxide producing bacteria,oral microbiota,reduced
same,oral and plasma nitrite levels,oral microbiota; healthy human volunteers,reduced
same,systolic and diastolic blood pressure,oral microbiota; healthy human volunteers,sustained increase
same,NR activity of CHX treated V.a (OD),"[1]; CHX 10 μg/ml, 1 min Treatment",0.266 OD
same,NR activity of CHX treated V.a (OD),"[1]; CHX 10 μg/ml, 10 min Treatment",0.300 OD
same,NR activity of CHX treated V.a (OD),"[1]; CHX 50 μg/ml, 1 min Treatment",0.304 OD
same,NR activity of CHX treated V.a (OD),"[1]; CHX 50 μg/ml, 10 min Treatment",0.282 OD
same,NR activity of CHX treated V.a (OD),"[1]; CHX 100 μg/ml, 1 min Treatment",0.255 OD
same,NR activity of CHX treated V.a (OD),"[1]; CHX 100 μg/ml, 10 min Treatment",0.280 OD
same,NR activity of CHX treated V.a (OD),"[1]; CHX 250 μg/ml, 1 min Treatment",0.190 OD
same,NR activity of CHX treated V.a (OD),"[1]; CHX 250 μg/ml, 10 min Treatment",0.161 OD
same,NR activity of CHX treated V.a (OD),"[1]; CHX 500 μg/ml, 1 min Treatment",0.170 OD
same,NR activity of CHX treated V.a (OD),"[1]; CHX 500 μg/ml, 10 min Treatment",0.162 OD
same,activities of nitrate reductase,[1]; [4],significantly inhibits
same,NR activity of CHX treated A.a.,[2]; CHX 100 μg/ml for 10 min,inhibited NR activity
same,OD at 550 nm for A.a. NR activity test,"[2]; CHX 100 μg/ml, 1 min treatment, 2nd trial, 2 hr",0.212 OD
same,OD at 550 nm for A.a. NR activity test,"[2]; CHX 100 μg/ml, 1 min treatment, 2nd trial, 3 hr",0.856 OD
same,OD at 550 nm for A.a. NR activity test,"[2]; CHX 100 μg/ml, 1 min treatment, 3rd trial, 2 hr",0.844 OD
same,OD at 550 nm for A.a. NR activity test,"[2]; CHX 100 μg/ml, 10 min treatment, 1st trial, 2 hr",0.117 OD
same,OD at 550 nm for A.a. NR activity test,"[2]; CHX 100 μg/ml, 10 min treatment, 1st trial, 3 hr",0.130 OD
same,OD at 550 nm for A.a. NR activity test,"[2]; CHX 100 μg/ml, 10 min treatment, 2nd trial, 2 hr",0.284 OD
same,OD at 550 nm for A.a. NR activity test,"[2]; CHX 200 μg/ml, 1 min treatment, 2nd trial, 2 hr",0.279 OD
same,OD at 550 nm for A.a. NR activity test,"[2]; CHX 200 μg/ml, 1 min treatment, 2nd trial, 3 hr",0.849 OD
same,OD at 550 nm for A.a. NR activity test,"[2]; CHX 200 μg/ml, 1 min treatment, 3rd trial, 2 hr",0.852 OD
same,OD at 550 nm for A.a. NR activity test,"[2]; CHX 200 μg/ml, 10 min treatment, 1st trial, 2 hr",0.125 OD
same,OD at 550 nm for A.a. NR activity test,"[2]; CHX 200 μg/ml, 10 min treatment, 1st trial, 3 hr",0.127 OD
same,OD at 550 nm for A.a. NR activity test,"[2]; CHX 200 μg/ml, 10 min treatment, 2nd trial, 2 hr",0.125 OD
same,OD at 550 nm for A.a. NR activity test,"[2]; CHX 300 μg/ml, 1 min treatment, 1st trial, 2 hr",0.263 OD
same,OD at 550 nm for A.a. NR activity test,"[2]; CHX 300 μg/ml, 1 min treatment, 2nd trial, 2 hr",0.134 OD
same,OD at 550 nm for A.a. NR activity test,"[2]; CHX 300 μg/ml, 1 min treatment, 2nd trial, 3 hr",0.260 OD
same,OD at 550 nm for A.a. NR activity test,"[2]; CHX 300 μg/ml, 1 min treatment, 3rd trial, 2 hr",0.853 OD
same,OD at 550 nm for A.a. NR activity test,"[2]; CHX 300 μg/ml, 10 min treatment, 1st trial, 2 hr",0.115 OD
same,OD at 550 nm for A.a. NR activity test,"[2]; CHX 300 μg/ml, 10 min treatment, 1st trial, 3 hr",0.130 OD
same,OD at 550 nm for A.a. NR activity test,"[2]; CHX 300 μg/ml, 10 min treatment, 2nd trial, 2 hr",0.129 OD
same,OD at 550 nm for A.a. NR activity test,"[2]; CHX 500 μg/ml, 1 min treatment, 1st trial, 2 hr",0.284 OD
same,OD at 550 nm for A.a. NR activity test,"[2]; CHX 500 μg/ml, 1 min treatment, 2nd trial, 2 hr",0.107 OD
same,OD at 550 nm for A.a. NR activity test,"[2]; CHX 500 μg/ml, 1 min treatment, 2nd trial, 3 hr",0.213 OD
same,OD at 550 nm for A.a. NR activity test,"[2]; CHX 500 μg/ml, 1 min treatment, 3rd trial, 2 hr",0.443 OD
same,OD at 550 nm for A.a. NR activity test,"[2]; CHX 500 μg/ml, 10 min treatment, 1st trial, 2 hr",0.114 OD
same,OD at 550 nm for A.a. NR activity test,"[2]; CHX 500 μg/ml, 10 min treatment, 1st trial, 3 hr",0.118 OD
same,OD at 550 nm for A.a. NR activity test,"[2]; CHX 500 μg/ml, 10 min treatment, 2nd trial, 2 hr",0.131 OD
same,OD at 550 nm for A.a. NR activity test,"[2]; CHX 750 μg/ml, 1 min treatment, 1st trial, 2 hr",0.148 OD
same,OD at 550 nm for A.a. NR activity test,"[2]; CHX 750 μg/ml, 1 min treatment, 2nd trial, 2 hr",0.107 OD
same,OD at 550 nm for A.a. NR activity test,"[2]; CHX 750 μg/ml, 1 min treatment, 2nd trial, 3 hr",0.169 OD
same,OD at 550 nm for A.a. NR activity test,"[2]; CHX 750 μg/ml, 1 min treatment, 3rd trial, 2 hr",0.391 OD
same,OD at 550 nm for A.a. NR activity test,"[2]; CHX 750 μg/ml, 10 min treatment, 1st trial, 2 hr",0.118 OD
same,OD at 550 nm for A.a. NR activity test,"[2]; CHX 750 μg/ml, 10 min treatment, 1st trial, 3 hr",0.141 OD
same,OD at 550 nm for A.a. NR activity test,"[2]; CHX 750 μg/ml, 10 min treatment, 2nd trial, 2 hr",0.112 OD
same,NR activity of CHX treated A.a.,"[2]; CHX 1,000 μg/ml (0.1%) for 1 min",completely inhibited NR activity
same,OD at 550 nm for A.a. NR activity test,"[2]; CHX 1000 μg/ml, 1 min treatment, 1st trial, 2 hr",0.160 OD
same,activities of nitrate reductase,[2]; [4],significantly inhibits
same,viable colony,"[3]; CHX 75 μg/ml, treatment time 0 min",+
same,viable colony,"[3]; CHX 75 μg/ml, treatment time 5 min",+
same,viable colony,"[3]; CHX 75 μg/ml, treatment time 30 min",+
same,viable colony,"[3]; CHX 75 μg/ml, treatment time 60 min",+
same,viable colony,"[3]; CHX 100 μg/ml, treatment time 0 min",+
same,viable colony,"[3]; CHX 100 μg/ml, treatment time 1 min",+
same,viable colony,"[3]; CHX 100 μg/ml, treatment time 3 min",+
same,viable colony,"[3]; CHX 100 μg/ml, treatment time 5 min",+
same,viable colony,"[3]; CHX 100 μg/ml, treatment time 10 min",+
same,viable colony,"[3]; CHX 100 μg/ml, treatment time 30 min",+
same,viable colony,"[3]; CHX 100 μg/ml, treatment time 60 min",−
same,viable colony,"[3]; CHX 200 μg/ml, treatment time 0 min",+
same,viable colony,"[3]; CHX 200 μg/ml, treatment time 1 min",+
same,viable colony,"[3]; CHX 200 μg/ml, treatment time 2 min",+
same,viable colony,"[3]; CHX 200 μg/ml, treatment time 3 min",+
same,viable colony,"[3]; CHX 200 μg/ml, treatment time 5 min",+
same,viable colony,"[3]; CHX 200 μg/ml, treatment time 10 min",+
same,viable colony,"[3]; CHX 200 μg/ml, treatment time 30 min",−
same,viable colony,"[3]; CHX 200 μg/ml, treatment time 60 min",−
same,viable colony,"[3]; CHX 300 μg/ml, treatment time 0 min",+
same,viable colony,"[3]; CHX 300 μg/ml, treatment time 1 min",+
same,viable colony,"[3]; CHX 300 μg/ml, treatment time 2 min",+
same,viable colony,"[3]; CHX 300 μg/ml, treatment time 3 min",+
same,viable colony,"[3]; CHX 300 μg/ml, treatment time 5 min",+
same,viable colony,"[3]; CHX 300 μg/ml, treatment time 10 min",+
same,viable colony,"[3]; CHX 300 μg/ml, treatment time 30 min",−
same,viable colony,"[3]; CHX 300 μg/ml, treatment time 60 min",−
same,viable colony,"[3]; CHX 500 μg/ml, treatment time 0 min",+
same,viable colony,"[3]; CHX 500 μg/ml, treatment time 1 min",+
same,viable colony,"[3]; CHX 500 μg/ml, treatment time 2 min",+
same,viable colony,"[3]; CHX 500 μg/ml, treatment time 3 min",+
same,viable colony,"[3]; CHX 500 μg/ml, treatment time 5 min",+
same,viable colony,"[3]; CHX 500 μg/ml, treatment time 10 min",−
same,viable colony,"[3]; CHX 500 μg/ml, treatment time 30 min",−
same,viable colony,"[3]; CHX 500 μg/ml, treatment time 60 min",−
same,viable colony,"[3]; CHX 750 μg/ml, treatment time 0 min",+
same,viable colony,"[3]; CHX 750 μg/ml, treatment time 1 min",+
same,viable colony,"[3]; CHX 750 μg/ml, treatment time 2 min",+
same,viable colony,"[3]; CHX 750 μg/ml, treatment time 3 min",+
same,viable colony,"[3]; CHX 750 μg/ml, treatment time 5 min",+
same,viable colony,"[3]; CHX 750 μg/ml, treatment time 10 min",−
same,viable colony,"[3]; CHX 750 μg/ml, treatment time 30 min",−
same,viable colony,"[3]; CHX 750 μg/ml, treatment time 60 min",−
same,viable colony,"[3]; CHX 1000 μg/ml, treatment time 0 min",+
same,viable colony,"[3]; CHX 1000 μg/ml, treatment time 1 min",+
same,viable colony,"[3]; CHX 1000 μg/ml, treatment time 2 min",+
same,viable colony,"[3]; CHX 1000 μg/ml, treatment time 3 min",−
same,viable colony,"[3]; CHX 1000 μg/ml, treatment time 5 min",−
same,viable colony,"[3]; CHX 1000 μg/ml, treatment time 30 min",−
same,viable colony,"[3]; CHX 1000 μg/ml, treatment time 60 min",−
same,viability of A.a.,"[3]; CHX 75-1,000 μg/ml, two-minute treatment, stop reagent added",limited viability
